From paper PMC4988473, “Evaluation of Three Amorphous Drug Delivery Technologies to Improve the Oral Absorption of Flubendazole” (Journal of Pharmaceutical Sciences, 2016)
Converted amounts (≈) assume the structure as drawn. Read-outs that look alike come from different tables or passages of the source.

Key:
pKa of flubendazole = assay type: physicochemical
Onchocerca volvulus = test system: Onchocerca volvulus; parameters: method as in PMID 6130195; details: after 12 months of follow-up; 5 weekly injections; cited from earlier work
[1] = Solubility in ambient conditions; assay type: physicochemical
LogP of flubendazole = assay type: physicochemical
Text: (§1) Table 1 Physicochemical Properties of Flubendazole (FLU) | column: Value

[2] = Apparent permeability (Papp); assay type: in vitro ADME; details: not told, AB
Text: as §1

pKa (pKa of flubendazole): 9.6
pKa (pKa of flubendazole; carbamate group): 3.6
solubility ([1]; acetone, organic solvent or mixture, read-out: Solubility in acetone): 180 µg/mL (≈ 0.575 mM)
solubility ([1]; dichloromethane, organic solvent or mixture, read-out: Solubility in dichloromethane): 140 µg/mL (≈ 0.447 mM)
solubility ([1]; formic acid, organic solvent or mixture, read-out: Solubility in formic acid): 340000 µg/mL (≈ 1090 mM)
solubility ([1]; methanol, organic solvent or mixture, read-out: Solubility in methanol): 110 µg/mL (≈ 0.351 mM)
solubility ([1]; water, read-out: Solubility in water): 5 µg/mL (≈ 0.016 mM)
logP (LogP of flubendazole): 3
Papp at 10 μM [2]: 33.8 ×10⁻⁶ cm/s
SMILES: COC(=O)Nc1nc2cc(C(=O)c3ccc(F)cc3)ccc2[nH]1 [FLU, flubendazole]
Activity against Onchocerca volvulus compared with diethylcarbamazine (Onchocerca volvulus): superior activity
